Experimental data: US9402837B2, “Method for the treatment of neurological disorders by enhancing the activity of β-glucocerebrosidase” (Amicus Therapeutics, Inc., priority 2006, dated 2016)
Structures can show the parent of a compound that is named as a salt.

Tests used:
GCase [1] = molecular target: GCase (Mus musculus (Mouse), UniProt P17439); assay: In vivo GCase activity in normal mice upon treatment with IFG
Method: This Example provides information on the effects of isofagomine, a GCase-specific chaperone on mice. […] Ten male C57BL6 (25 g) mice per group were used. The drug was be given in the drinking water, therefore water consumption was monitored daily.
In the control group (0 mg/kg/day), the mice were dosed daily in the drinking water (no drug) and divided into two groups. Ten animals were euthanized after 4 weeks of treatment, blood was collected from the descending aorta or vena cava, and tissues were harvested and then necropsied.
In the test group, 10 mice were dosed daily in the drinking water with an administration aim of 200 mg/kg/day.
The blood samples were drawn into lithium heparin and spun for plasma. After bleeding, the spleen, lung, brain and liver were removed and placed into vials. The vials were put into dry ice for rapid freezing. The tissues and plasma were then analyzed for tissue levels of GCase.
Small portions of tissue were removed and added to 500 μl lysis buffer (20 mM sodium citrate and 40 mM disodium hydrogen phosphate, pH 4.0, including 0.1% Triton X-100). Tissues were then homogenized using a microhomogenizer for a brief time, followed by centrifugation at 10,000 rpm for 10 minutes at 4° C. Supernatants were transferred to a new tube and used for the enzyme assay.
The enhancement ratio is equal to the activity with the compound over the activity without the compound.

[2] = Phase I pharmacokinetics of oral IFG tartrate in healthy volunteers; assay type: in vivo, human; conditions: for accumulation after repeated doses: multiple-dose study, 7 days oral, Day 1 vs Day 7
Method: (§1) In a first-in-human single ascending dose study (1a), doses of 8, 25, 75, 150 (two cohorts), and 300 mg were administered (6 active, 2 placebo in each cohort). In a multiple ascending dose study (1b), doses of 25, 75, and 225 mg were administered daily for seven days (6 active, 2 placebo in each cohort). In both studies, of the eight subjects in each group; six were randomized to receive IFG tartrate, and two subjects received placebo. Subjects were confined from the evening of day-1 until 24 hrs after completion of dosing. In the phase 1a study subjects returned at 48 hrs (PK sampling) and 7 days (safety follow-up) following dosing. In the phase 1b study subjects returned at 48 h (PD sampling), 7 days (PD sampling and safety follow-up), and 14 days (PD sampling) following the last dose
Subjects were healthy male and female volunteers between 19 and 55 years of age (inclusive) consisting of members of the community at large.
Blood samples (10 mL each) were collected in blood collection tubes containing EDTA before dosing was determined at regular intervals for the phas 1a during 48 hr following dosing. In the phase 1b study a full IFG tartrate pharmacokinetic profile was determined for 24 hr following the first dose, Cmin values were obtained pre-dose on day 6 and 7, and another full profile was determined for 24 hr following the final, day 7, dose.

[3] = Phase I safety and tolerability in healthy volunteers; assay type: in vivo, human
Method: as §1
Safety was determined by evaluating vital signs, laboratory parameters (serum chemistry, hematology, and urinalysis), physical examination and by recording adverse events during the Treatment Period.
Safety data including laboratory evaluations, physical exams, adverse events, ECG monitoring and vital signs assessments were summarized by treatment group and point of time of collection. Descriptive statistics (arithmetic mean, standard deviation, median, minimum and maximum) were calculated for quantitative safety data as well as for the difference to baseline. Frequency counts were compiled for classification of qualitative safety data.

GCase [4] = molecular target: GCase (Homo sapiens (Human), UniProt P04062); assay: GCase enzymatic activity in healthy volunteers receiving IFG; assay type: in vivo
Method: as §1
GCase activity was determined pre-dose on days 1, 3, 5, 7, 9, 14, and 21. Blood samples were cooled in an ice bath and centrifuged under refrigeration as soon as possible. Plasma samples were divided into two aliquots and stored at […] pending assay. At the end of the study, all samples were transferred to MDS Pharma Services Analytical Laboratories (Lincoln) for analysis.

α-synuclein [5] = assay: α-synuclein accumulation in brains of V394L knock-in mice treated with CBE; assay type: in vivo; conditions: CBE daily i.p. for 30 days
Method: Mice homozygous for the point mutations D409H or V394L and expressing a low level of saposin C in a prosaposin knock-out background, were analyzed for accumulation of α-synuclein in the brain. These mice have been reported to accumulate glucosylceramide in the brain. Mice homozygous for the point mutations V394L only, were analyzed for α-synuclein accumulation with and without CBE treatment. […] Mice were administered CBE daily by interperitonally injection for 30 consequitive days ([…] calculated from the total weight of the mouse) and brains were analyzed by immunohistochemistry for accumulation of α-synuclein.
Brain tissue was frozen and fixed for immunohistochemistry with 4% paraformaldehyde and serial sections were co-labelled with anti-human α-synuclein (ab1903; Abcam, Cambridge, Mass.) and rabbit anti-ubiquitin (ab7780; Abcam, Cambridge, Mass.).

α-synuclein [6] = assay: α-synuclein immunohistochemistry in transgenic mice over-expressing α-synuclein; assay type: in vivo
Method: 48 transgenic animals (male and female) were allocated to 6 groups (n=8) at an age of 5 to 6 weeks concerning baseline and 3 to 4 weeks, respectively concerning all other treatment groups at treatment start. One group of transgenic animals served as baseline group (5 weeks old) and was sacrificed untreated on day 0. One group of transgenic animals was treated with vehicle.
Mice (ages 3-4 weeks) were treated once daily (orally) at either 2 mg/kg; 20 mg/kg; or 200 mg/kg of IFG tartrate for 3 months. One group also was treated once every other day at 20 mg/kg.
Animals of the baseline group were sacrificed at an age of 5 weeks. All other animals were sacrificed at the end of the 3 months treatment period and blood for preparation of serum and macrophages as well as lung, brain and CSF were extracted. Therefore, all mice were sedated by standard inhalation anesthesia (Isofluran, Baxter). Cerebrospinal fluid was obtained by blunt dissection and exposure of the foramen magnum. Upon exposure, a Pasteur pipette was inserted to the approximate depth of 0.3-1 mm into the foramen magnum. CSF was collected by suctioning and capillary action until flow fully ceases. CSF was immediately frozen and kept at −80° C.
After CSF sampling, each mouse was placed in dorsal recumbence, the thorax was opened and a 26-gauge needle attached to a 1 cc syringe was inserted into the right cardiac ventricular chamber. Light suction was applied to the needle. Blood was separated into 2 parts. […] Mice were transcardially perfused with physiological (0.9%) saline and lung tissue as well as brain was rapidly removed. The lungs were rinsed in cold PBS (outside only) to remove blood and then they were quick frozen.
The brains were removed and hemisected. The right hemispheres of all mice were immersion fixed in freshly produced 4% paraformaldehyde/PBS (pH 7.4) for one hour at room temperature. Thereafter brains were transferred to a 15% sucrose PBS solution for 24 hours to ensure cryoprotection. On the next day brains were frozen in liquid isopentane and stored at −80° C. until used for histological investigations. To determine the effects of the IFG-tartrate treatment from 8 animals per group 10 μm-thick cryosections were cut for determination of alpha-synuclein pathology. All organs and tissues mentioned were sampled and from specific brain regions i.e. hippocampus, midbrain, frontal cortex and striatum of one hemibrain were extracted and frozen. The other brain half was processed for histological evaluation.
For evaluation of the number of α-synuclein positive cells and Lewy body like inclusions an immunohistochemical staining was carried out using the monoclonal human alpha-synuclein specific antibody (Alexis@; Cat#804-258-L001), dilution 1:5, detected with secondary Cy2 antibody (Jackson Immunoresearch®). The number of alpha-synuclein positive cells in five different layers, one slice per layer, was counted for evaluation in the whole hippocampus and cortex seperately.
Briefly, samples were washed for 10 min with PBS at room temperature, followed by fixing for 30 min at room temperature with 4% paraformaldehyde, followed by washing 2 times for 5 min each with PBS at room temperature. For Proteinase K-treated sections, sections were incubated in PBS containing 10 μg/ml proteinase-K for 10 minutes at room temperature. Next, samples were incubated for 15 min at room temperature with blocking solution to block endogenous peroxidase, followed by two more 5 min washes with PBS. Samples were then incubated for 60 min at room temperature with a blocking reagent to block non-specific binding, followed by two more 5 min washes with PBS. Samples were then incubated with M.O.M. diluent for 5 min at room temperature, followed by incubation with the primary antibody (dilution 1:5 in M.O.M. diluent) for 60 min with at room temperature. […]

Sequence of GCase (Mus musculus (Mouse), UniProt P17439) (P17439 20-515): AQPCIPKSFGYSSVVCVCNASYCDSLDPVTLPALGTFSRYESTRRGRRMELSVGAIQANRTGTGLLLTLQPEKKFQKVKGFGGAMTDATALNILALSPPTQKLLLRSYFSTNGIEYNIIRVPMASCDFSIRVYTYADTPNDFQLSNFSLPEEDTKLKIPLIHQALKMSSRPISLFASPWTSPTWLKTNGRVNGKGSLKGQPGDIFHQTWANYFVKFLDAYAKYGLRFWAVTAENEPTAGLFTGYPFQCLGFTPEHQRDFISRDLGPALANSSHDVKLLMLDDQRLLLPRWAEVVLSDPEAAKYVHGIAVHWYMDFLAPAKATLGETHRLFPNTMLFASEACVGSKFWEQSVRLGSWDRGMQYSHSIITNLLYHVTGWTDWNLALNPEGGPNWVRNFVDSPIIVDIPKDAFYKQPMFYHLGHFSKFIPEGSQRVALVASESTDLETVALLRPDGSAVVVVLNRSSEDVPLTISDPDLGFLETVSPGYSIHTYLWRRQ
Sequence of GCase (Homo sapiens (Human), UniProt P04062) (P04062 40-536): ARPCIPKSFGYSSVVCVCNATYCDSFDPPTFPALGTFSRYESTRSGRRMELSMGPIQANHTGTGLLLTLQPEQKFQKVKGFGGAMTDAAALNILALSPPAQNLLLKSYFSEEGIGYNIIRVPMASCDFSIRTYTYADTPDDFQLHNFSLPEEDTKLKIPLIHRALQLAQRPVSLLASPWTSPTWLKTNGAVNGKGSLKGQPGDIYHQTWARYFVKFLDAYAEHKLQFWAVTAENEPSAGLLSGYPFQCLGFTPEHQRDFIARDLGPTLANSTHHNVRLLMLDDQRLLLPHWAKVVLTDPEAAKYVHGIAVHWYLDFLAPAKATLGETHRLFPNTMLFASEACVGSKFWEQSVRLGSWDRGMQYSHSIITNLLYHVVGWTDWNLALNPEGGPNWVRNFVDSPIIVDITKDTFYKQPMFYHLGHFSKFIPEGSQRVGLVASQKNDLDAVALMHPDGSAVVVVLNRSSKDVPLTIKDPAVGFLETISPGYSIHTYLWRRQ

Row | SMILES | wild-type GCase activity dose-response (GCase [1]; mice treated with 0, 1, 10, or 100 mg/kg/day) | GCase levels in tissues (GCase [1]; normal C57BL6 mice, 200 mg/kg/day in drinking water, liver, spleen, brain and lung) | accumulation after repeated doses [2] | sex differences in pharmacokinetic parameters ([2]; repeated doses) | adverse events most frequently reported ([3]; healthy adult subjects) | increase in GCase levels above baseline (GCase [4]; healthy volunteers, treatment period, dose-related, maximum reached) | GCase levels after removal of the drug (GCase [4]; two weeks after the last dose) | α-synuclein in the brain (α-synuclein [5]) | systemic exposure via the oral route ([2]; healthy volunteers) | plasma AUC and Cmax versus administered dose ([2]; single-dose study) | serious adverse events ([3]; healthy volunteers, both Phase I studies) | tolerability ([3]; healthy volunteers, single (8-300 mg) and multiple (25-225 mg, 7 days) oral doses) | number of α-synuclein immunoreactive cells in the hippocampus versus vehicle (α-synuclein [6]; 2 mg/kg daily, 3 months) | age-accompanied increase of α-synuclein positive cell load versus baseline (α-synuclein [6]; 2 mg/kg, mean of cortex and hippocampus) | accumulation of Proteinase K-resistant α-synuclein aggregates (α-synuclein [6]; 20 mg/kg, 3 months, single responding animal) | α-synuclein pathology versus controls (α-synuclein [6]; 20 mg/kg, daily or every other day, 3 months) | qualitative α-synuclein immunostaining versus control animals (α-synuclein [6]; 2 and 20 mg/kg b.w. daily, 3 months, cortex and hippocampus) | α-synuclein pathology in the cortex (α-synuclein [6]; 3 months treatment)
1 | OC[C@H]1CNC[C@@H](O)[C@@H]1O [Isofagomine, (3R,4R,5R)-5-(hydroxymethyl)-3,4-piperidinediol] | linear dose-response increase | increased | Minimal accumulation | no observable sex differences | contact dermatitis, headache, nausea, increased serum bilirubin, dizziness, scab, ocular hyperaemia, and puncture site pain | approximately 3.5 fold | return to near baseline levels by day 21 | – | – | – | – | – | – | – | – | – | – | –
2 | O[C@H]1[C@H](O)[C@@H](O)[C@@H]2O[C@@H]2[C@@H]1O [CBE, conduritol-β-epoxide] | – | – | – | – | – | – | – | resulted in accumulation of α-synuclein in the brain | – | – | – | – | – | – | – | – | – | –
3 | OC[C@H]1CNC[C@@H](O)[C@@H]1O [Isofagomine tartrate] | – | – | no unexpected accumulation | – | – | – | – | – | good systemic exposure | linearly correlated with administered dose | No serious adverse events occurred | generally well tolerated | reduced the number of immunoreactive cells in the hippocampus significantly | prevented mice from the age-accompanied increase of pathology | prevents the accumulation of these α-synuclein aggregates | not effective versus controls | strongly decreased background and decreased α-synuclein positive cell numbers in some | did not reach significance level in the cortex
